# Test results reported in ChEMBL document CHEMBL3885861, “Open TG-GATES”.
# Species: Rattus norvegicus
# Assay: Open TG-GATES - Regimen: Single
# Format: toxicity, organism-based, Sprague-Dawley
# Design: regimen Single, gender Male, age 6 weeks
# Conditions: in vivo, po, 0 mg/kg, route gavage, dose level Control; for APTT / Bas / Eos / Fbg / Hb / Ht / Lym / MCH / MCHC / MCV / Mono / Neu / PT / Plat / RBC / Ret / WBC: tissue Blood; for KIDNEY_L / KIDNEY_R / KIDNEY_TOTAL: tissue Kidney; for LIVER: tissue Liver; for A/G / ALP / ALT / AST / BUN / CRE / Ca / Cl / DBIL / GLC / IP / K / LDH / Na / PL / RALB / TBIL / TC / TG / TP / gamma-GTP: tissue Plasma
structure (smiles),measurement,setting,value
CCOC(=O)CCC(=O)O[C@H]1[C@H](O[C@@H]2[C@@H](C)[C@H](O[C@H]3C[C@@](C)(OC)[C@@H](O)[C@H](C)O3)[C@@H](C)C(=O)O[C@H](CC)[C@@](C)(O)[C@H](O)[C@@H](C)C(=O)[C@H](C)C[C@@]2(C)O)O[C@H](C)C[C@@H]1N(C)C [ERYTHROMYCIN ETHYLSUCCINATE],TERMINAL_BW,3 h,215 g
same,APTT,3 h,23.2 s
same,Bas,3 h,0%
same,Eos,3 h,1%
same,Fbg,3 h,292.2 mg/dL
same,Hb,3 h,13.2 g/dL
same,Ht,3 h,40.2%
same,Lym,3 h,81.2%
same,MCH,3 h,20.8 pg
same,MCHC,3 h,32.9%
same,MCV,3 h,63.2 fL
same,Mono,3 h,2%
same,Neu,3 h,15%
same,PT,3 h,16.3 s
same,Plat,3 h,112.7 x10_4/uL
same,RBC,3 h,635.6 x10_4/ul
same,Ret,3 h,7.9%
same,WBC,3 h,75.2 x10_2/uL
same,KIDNEY_L,3 h,0.9 g
same,KIDNEY_R,3 h,0.9 g
same,KIDNEY_TOTAL,3 h,1.8 g
same,LIVER,3 h,9.7 g
same,A/G,3 h,1.2
same,ALP,3 h,1728.4 IU/L
same,ALT,3 h,40.6 IU/L
same,AST,3 h,76.6 IU/L
same,BUN,3 h,14.6 mg/dL
same,CRE,3 h,0.2 mg/dL
same,Ca,3 h,10.4 mg/dL
same,Cl,3 h,103.2 meq/L
same,DBIL,3 h,0 mg/dL
same,GLC,3 h,188.2 mg/dL
same,IP,3 h,8.3 mg/dL
same,K,3 h,3.9 meq/L
same,LDH,3 h,159.2 IU/L
same,Na,3 h,139.4 meq/L
same,PL,3 h,140 mg/dL
same,RALB,3 h,2.9 g/dL
same,TBIL,3 h,0.012 mg/dL
same,TC,3 h,84.8 mg/dL
same,TG,3 h,55.4 mg/dL
same,TP,3 h,5.4 g/dL
same,gamma-GTP,3 h,1 IU/L
same,TERMINAL_BW,6 h,212.6 g
same,APTT,6 h,22.9 s
same,Bas,6 h,0%
same,Eos,6 h,0.6%
same,Fbg,6 h,321.8 mg/dL
same,Hb,6 h,13.8 g/dL
same,Ht,6 h,42.2%
same,Lym,6 h,75.8%
same,MCH,6 h,21.3 pg
same,MCHC,6 h,32.8%
same,MCV,6 h,65 fL
same,Mono,6 h,2.4%
same,Neu,6 h,20.2%
same,PT,6 h,15.8 s
same,Plat,6 h,121 x10_4/uL
same,RBC,6 h,651 x10_4/ul
same,Ret,6 h,7.6%
same,WBC,6 h,111.5 x10_2/uL
same,KIDNEY_L,6 h,0.9 g
same,KIDNEY_R,6 h,0.9 g
same,KIDNEY_TOTAL,6 h,1.9 g
same,LIVER,6 h,9.3 g
same,A/G,6 h,1.2
same,ALP,6 h,1491 IU/L
same,ALT,6 h,37.4 IU/L
same,AST,6 h,70.6 IU/L
same,BUN,6 h,9.6 mg/dL
same,CRE,6 h,0.2 mg/dL
same,Ca,6 h,10.3 mg/dL
same,Cl,6 h,103.4 meq/L
same,DBIL,6 h,0.002 mg/dL
same,GLC,6 h,190.6 mg/dL
same,IP,6 h,8.9 mg/dL
same,K,6 h,4.1 meq/L
same,LDH,6 h,138 IU/L
same,Na,6 h,139.6 meq/L
same,PL,6 h,139.8 mg/dL
same,RALB,6 h,3 g/dL
same,TBIL,6 h,0.02 mg/dL
same,TC,6 h,78.8 mg/dL
same,TG,6 h,67.6 mg/dL
same,TP,6 h,5.5 g/dL
same,gamma-GTP,6 h,1.2 IU/L
same,TERMINAL_BW,9 h,212 g
same,APTT,9 h,22.4 s
same,Bas,9 h,0%
same,Eos,9 h,0.6%
same,Fbg,9 h,319.6 mg/dL
same,Hb,9 h,13 g/dL
same,Ht,9 h,39.6%
same,Lym,9 h,81.2%
same,MCH,9 h,20.4 pg
same,MCHC,9 h,32.8%
same,MCV,9 h,62.2 fL
same,Mono,9 h,1.8%
same,Neu,9 h,15.4%
same,PT,9 h,15.9 s
same,Plat,9 h,118.3 x10_4/uL
same,RBC,9 h,636.4 x10_4/ul
same,Ret,9 h,7.4%
same,WBC,9 h,106.6 x10_2/uL
same,KIDNEY_L,9 h,1 g
same,KIDNEY_R,9 h,1 g
same,KIDNEY_TOTAL,9 h,1.9 g
same,LIVER,9 h,9 g
same,A/G,9 h,1.2
same,ALP,9 h,1414 IU/L
same,ALT,9 h,38.4 IU/L
same,AST,9 h,69.8 IU/L
same,BUN,9 h,10.8 mg/dL
same,CRE,9 h,0.2 mg/dL
same,Ca,9 h,10.5 mg/dL
same,Cl,9 h,103.6 meq/L
same,DBIL,9 h,0 mg/dL
same,GLC,9 h,190.8 mg/dL
same,IP,9 h,9.1 mg/dL
same,K,9 h,4.2 meq/L
same,LDH,9 h,161.4 IU/L
same,Na,9 h,139.2 meq/L
same,PL,9 h,124.4 mg/dL
same,RALB,9 h,2.9 g/dL
same,TBIL,9 h,0.016 mg/dL
same,TC,9 h,71.6 mg/dL
same,TG,9 h,51.6 mg/dL
same,TP,9 h,5.4 g/dL
same,gamma-GTP,9 h,1 IU/L
same,TERMINAL_BW,24 h,227 g
same,APTT,24 h,20.9 s
same,Bas,24 h,0%
same,Eos,24 h,1%
same,Fbg,24 h,327.8 mg/dL
same,Hb,24 h,13.5 g/dL
same,Ht,24 h,40.3%
same,Lym,24 h,83.8%
same,MCH,24 h,21.4 pg
same,MCHC,24 h,33.4%
same,MCV,24 h,64.2 fL
same,Mono,24 h,3.4%
same,Neu,24 h,11%
same,PT,24 h,15.9 s
same,Plat,24 h,111.9 x10_4/uL
same,RBC,24 h,629.4 x10_4/ul
same,Ret,24 h,7.8%
same,WBC,24 h,111 x10_2/uL
same,KIDNEY_L,24 h,1 g
same,KIDNEY_R,24 h,1 g
same,KIDNEY_TOTAL,24 h,2 g
same,LIVER,24 h,10.5 g
same,A/G,24 h,1.2
same,ALP,24 h,1574.2 IU/L
same,ALT,24 h,37.6 IU/L
same,AST,24 h,66.4 IU/L
same,BUN,24 h,17.8 mg/dL
same,CRE,24 h,0.1 mg/dL
same,Ca,24 h,10.5 mg/dL
same,Cl,24 h,106.6 meq/L
same,DBIL,24 h,0 mg/dL
same,GLC,24 h,211.4 mg/dL
same,IP,24 h,8.5 mg/dL
same,K,24 h,4.3 meq/L
same,LDH,24 h,191.4 IU/L
same,Na,24 h,143 meq/L
same,PL,24 h,156.2 mg/dL
same,RALB,24 h,3 g/dL
same,TBIL,24 h,0.024 mg/dL
same,TC,24 h,81.4 mg/dL
same,TG,24 h,119.4 mg/dL
same,TP,24 h,5.4 g/dL
same,gamma-GTP,24 h,1.2 IU/L
